Where a SMILES comes first, the peptide text is derived from it. [ ]: non-standard residue; d: D form. βAla = NCCC(=O)O
Columns and labels:
recombinant MMP‐14 = target: T1, recombinant MMP‐14 (Homo sapiens, UniProt P50281); test: Peptide degradation with added exogenous recombinant MMP-14 (LC-MS); format: in vitro ADME; conditions: fresh cell culture media (both hMSC and hUVEC media), no cell contact, recombinant MMP-14 0.5 nM, 24 h, LC-MS
T1 construct: purchased antibodies.com
Method: To verify that MMP‐14 can degrade the KLVAD‐LM and PanMMP peptides, recombinant MMP‐14 was added to the different peptides, both in PBS and in the Cell and Media culture conditions (Figure 7 ). Peptides were incubated under three conditions: in fresh cell culture media (“Blank”), in media with cells present (“Cells”), and in cell‐conditioned media (“Media”). This was done for both hMSCs and hUVECs, and was also done with and without the addition of exogenous MMP.
The extent of peptide degradation was quantified for samples both with and without the addition of exogenous MMP‐14. […] Error bars indicate ± standard deviation, N = 3 with technical triplicates.
hUVECs (75000 per well) or hMSCs (36000 per well) were seeded into a 48 well plate, and 500 µL media was added to the wells. […] The peptide libraries were dissolved at a stock solution of 10 mM total peptide content. For libraries containing 38 peptides, 95 µL of the stock solution was added to each well; for libraries with 19 peptides, 47.5 µL was added to each well, and media was taken at 0 and 24 h. Add 4 µL of acetic acid to all collected media in the LC‐MS plates and store them in a −80 °C freezer to prevent further proteolytic degradation. From each sample, 10 µL of crude solution was introduced by the LC‐MS through a Thermo Scientific Vanquish LC System (Thermo Fisher Scientific), which outputted to a Thermo Scientific LTQ XL Linear Ion Trap Mass Spectrometer (Thermo Fisher Scientific). The sampled mixture was trapped on a column (ProntoSIL C18 AQ, 120 Å, 3 µm, 2.0 x 50 mm HPLC Column, PN 0502F184PS030, MAC‐MOD Analytical Inc.). The samples were loaded onto the column with a solvent containing acetonitrile/water, 5:95 (v/v) containing 1% acetic acid at a flow rate of 300 µL min^−1 and held for 1 min. The sample was then eluted from the column with a linear gradient of 5–40% Solvent B (1% acetic acid in acetonitrile) at the same flow rate for 5 min. This was followed by a 1 min ramp up to 100% Solvent B, where it was re‐equilibrated with Solvent A (1% acetic acid) to 5% solvent B over the course of 1 min and held there for 2 min. The column temperature was kept at a constant 29 °C, and the mass spectrometer was operated in positive ion mode. Using a Heated ESI, the Source Voltage was set to 4.1 kV, and the capillary temperature was 350 °C. For non‐library degradation studies, 2.5 µL of 10 mM peptide stock solution for each peptide was added.
To assess the activity of the conditioned media, the media were divided into two equal portions. One portion was used for a standard degradation study, while the other was cultured for an additional 24 h before the PanMMP and KLVADLMASAE were added. After 24 h of incubation, the media were collected for further analysis. To assess the impact of recombinant MMP‐14 on PanMMP and KLVADLMASAE, recombinant MMP‐14 (antibodies.com) was dissolved in the media at a concentration of 0.5 nM. The remaining steps followed the standard degradation study protocol.
For all degradation studies using soluble peptides, a non‐proteolytically degradable NH2‐βFβAβAβAβAβAβA‐amide (βFβA6) peptide, where βF is β‐phenylalanine and βA is β‐alanine, was added at a 50 µM concentration and used as an internal standard. Peptide degradation ratios were measured by LC‐MS and analyzed by Xcalibur. The relative concentrations of the peptide were calculated by the ratio of the peak area of the peptide and the peak area of βFβA6.

hUVECs = test: Quantification of peptide and hydrogel degradation in cell-laden PEG hydrogels (Cy3/FAM fluorescence); format: in vitro ADME, human
Text: (§1) Next we designed systems to quantify the amount of crosslinking peptide degradation and bulk hydrogel degradation during culture. We synthesized both the KLVAD‐LM peptide and the PanMMP peptide with an N‐terminal Cy3 and a C‐terminal azide to click into the PEG hydrogel network, and also coupled fluorescein (FAM) to the hydrogel using a non‐degradable linker (Figure 5A). Proteolytic cleavage of the crosslinking peptides will liberate the Cy3 from the PEG hydrogel, and bulk erosion of the hydrogel reduces the amount of PEG and FAM. At desired time points, the gels were completely degraded with trypsin, and the fluorescence intensity of Cy3 and FAM was measured to quantify peptide and hydrogel degradation during culture (Figure 5B).
(§2) Figure 5 The rate of degradation of crosslinking peptides in the hydrogels was quantified using fluorescence. A) A fraction of PEG arms were functionalized with PanMMP and KLVAD‐LM peptides that were labeled with […] on their N‐terminus and conjugated to the PEG hydrogel matrix on their C‐terminus to quantify crosslinker degradation. Fluorescein (FAM) was also conjugated to the hydrogel through non‐degradable linkers to quantify bulk hydrogel degradation. […] The amounts of remaining Cy3 and FAM were quantified using fluorescence spectroscopy. […]

hMSCs = test: as above; format: in vitro ADME, human
Text: as §1, §2

| Compound | degradation on adding MMP‐14 to the Blank condition (recombinant MMP‐14) | degradation within hydrogels relative to that seen with the PanMMP peptide, hUVECs (hUVECs) | degradation within hydrogels relative to that seen with the PanMMP peptide, hMSCs (hMSCs) |
| --- | --- | --- | --- |
| CC[C@H](C)[C@H](NC(=O)CNC(=O)[C@H](CCC(N)=O)NC(=O)[C@@H]1CCCN1C(=O)CNC(=O)CCNC(C)=O)C(=O)N[C@@H](Cc1c[nH]c2ccccc12)C(=O)NCC(=O)N[C@@H](CCC(N)=O)C(=O)NCCC(N)=O [PanMMP, reference compound] (Ac-[βAla]GPQGIWGQ[βAla]-NH2) | 10–20% |  |  |
| CSCC[C@H](NC(=O)[C@H](CC(C)C)NC(=O)[C@H](CC(=O)O)NC(=O)[C@H](C)NC(=O)[C@@H](NC(=O)[C@H](CC(C)C)NC(=O)[C@H](CCCCN)NC(=O)CCNC(C)=O)C(C)C)C(=O)N[C@@H](C)C(=O)N[C@@H](CO)C(=O)N[C@@H](C)C(=O)N[C@@H](CCC(=O)O)C(=O)NCCC(N)=O [KLVAD-LM] (Ac-[βAla]KLVADLMASAE[βAla]-NH2) |  | 40–60% | 40–60% |
